Assay results taken from ChEMBL document CHEMBL1201862, “PubChem BioAssay data set” (2004).
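The compound was tested at five concentrations on cells cultured in 96-well plates, with a 48-hour exposure period. GI50 = concentration required for 50% inhibition of growth.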 The source made the active and inactive calls. Cut-off read from the data, not from the text of the source: active = GI50 up to about 1.1 µM and inactive = higher.

What was measured:
Test in all cases: NCI-60 cell line screen, 48 h
[1] = test system: NCI-H522
[2] = test system: HT-29
[3] = test system: UACC-257
[4] = test system: SN12C
[5] = test system: CCRF-CEM
[6] = test system: SR
[7] = test system: COLO 205
[8] = test system: NCI/ADR-RES
[9] = test system: SW-620
[10] = test system: Malme-3M
[11] = test system: OVCAR-3
[12] = test system: A498
[13] = test system: SK-OV-3
[14] = test system: MDA-N
[15] = test system: UO-31
[16] = test system: KM12
[17] = test system: 786-0
[18] = test system: OVCAR-5
[19] = test system: HCT-15
[20] = test system: IGROV-1
[21] = test system: NCI-H460
[22] = test system: EKVX
[23] = test system: DU-145
[24] = test system: U-251
[25] = test system: SF-295
[26] = test system: CAKI-1
[27] = test system: UACC-62
[28] = test system: OVCAR-8
[29] = test system: SNB-19
[30] = test system: MDA-MB-435
[31] = test system: RPMI-8226
[32] = test system: T47D
[33] = test system: A549
[34] = test system: NCI-H23
[35] = test system: HCC 2998
[36] = test system: HL-60
[37] = test system: M14
[38] = test system: OVCAR-4
[39] = test system: MOLT-4
[40] = test system: K562
[41] = test system: HCT-116
[42] = test system: HOP-92
[43] = test system: ACHN
[44] = test system: SNB-75
[45] = test system: BT-549
[46] = test system: RXF 393
[47] = test system: MCF7
[48] = test system: SK-MEL-28
[49] = test system: SK-MEL-2
[50] = test system: NCI-H226
[51] = test system: SF-268
[52] = test system: PC-3
[53] = test system: HOP-62
[54] = test system: MDA-MB-231
[55] = test system: SF-539
[56] = test system: SK-MEL-5
[57] = test system: LOX IMVI
[58] = test system: TK-10

Measured: GI50

O=c1c2cc(-c3ccccc3)cnc2sn1-c1ccc([N+](=O)[O-])cc1
55.2 µM: [19]
inactive: [1] 22.1 µM | [2] 68.2 µM | [3] > 100 µM | [4] 60 µM | [5] 19 µM | [6] > 100 µM | [7] > 100 µM | [8] 32.7 µM | [9] 94.8 µM | [10] 40.6 µM | [11] 16.9 µM | [12] 23.7 µM | [13] 26.9 µM | [14] 60.4 µM | [15] 40 µM | [16] 38.9 µM | [17] 34.5 µM | [18] > 100 µM | [20] 29.6 µM | [21] 37.3 µM | [22] 53 µM | [23] 61.4 µM | [24] 21.6 µM | [25] 27 µM | [26] 39.6 µM | [27] 17.7 µM | [28] 33.2 µM | [29] 25.4 µM | [30] 42.3 µM | [31] 23.4 µM | [32] 44.1 µM | [33] 31.8 µM | [34] 15.1 µM | [35] > 100 µM | [36] 37.8 µM | [37] 50.6 µM | [38] 39 µM | [39] 71.3 µM | [40] 35.8 µM | [41] 21.3 µM | [42] 20.6 µM | [43] 24.9 µM | [44] 25.1 µM | [45] 52.8 µM | [46] 29.9 µM | [47] 49 µM | [48] 58.1 µM | [49] 35.6 µM | [50] 44.5 µM | [51] 48.2 µM | [52] 33.7 µM | [53] 26.5 µM | [54] 41.3 µM | [55] 42.7 µM

O=C(CCCCCCCCC(=O)NN1C(=O)/C(=C\c2ccc(O)c(O)c2)SC1c1c(O)ccc2ccccc12)NN1C(=O)C(=Cc2ccc(O)c(O)c2)SC1c1c(O)ccc2ccccc12 (configuration not stated)
4.66 µM: [19]
active: [5] 0.828 µM
inactive: [56] 1.93 µM | [1] 5.75 µM | [2] 10.8 µM | [3] 10.7 µM | [4] 27.2 µM | [6] 4.42 µM | [57] 1.79 µM | [7] 20.4 µM | [8] 10.6 µM | [9] 7.64 µM | [10] 5.24 µM | [11] 2.25 µM | [12] 22.8 µM | [13] 6.28 µM | [14] > 41.7 µM | [15] 3.39 µM | [16] 23.9 µM | [17] 3.46 µM | [18] > 49.5 µM | [20] 8.51 µM | [21] 4.62 µM | [22] 7.59 µM | [23] 8.28 µM | [24] 12.5 µM | [25] 3.86 µM | [26] 6.01 µM | [27] 4.74 µM | [28] 4.49 µM | [29] 22.6 µM | [30] > 27.2 µM | [31] 3.85 µM | [32] 11.3 µM | [33] 6.95 µM | [34] 9.35 µM | [35] 24.5 µM | [37] 5.02 µM | [38] 5.16 µM | [39] 2.48 µM | [58] > 50.7 µM | [40] 5.64 µM | [41] 4.05 µM | [42] 8.47 µM | [43] 4.8 µM | [44] 60.4 µM | [45] > 36.9 µM | [46] 10 µM | [47] 10.1 µM | [48] 10 µM | [49] 5.97 µM | [50] 6.08 µM | [51] 6.4 µM | [52] 10.9 µM | [53] 2.45 µM | [54] > 23.8 µM | [55] 8.45 µM
